Measured values taken from the NIST ThermoML archive (doi:10.1021/acs.jced.5b00105).
Numbers after ± are expanded uncertainties.

Assay: xn = mol fraction of the nth substance listed
Conditions: for surface tension liquid-gas: Drop volume; for viscosity / mass density: 100 kPa, Liquid; for viscosity: Concentric cylinders viscometry; for mass density: Vibrating tube method

CCC1CCCCC1 [ethylcyclohexane] + CC(C)CC(C)(C)C
surface tension liquid-gas (293.15 K, x1 = 0.1): 19.51 ± 0.24 mN/m | surface tension liquid-gas (293.15 K, x1 = 0.1999): 19.99 ± 0.24 mN/m | surface tension liquid-gas (293.15 K, x1 = 0.3): 20.57 ± 0.24 mN/m | surface tension liquid-gas (293.15 K, x1 = 0.4): 21.13 ± 0.24 mN/m | surface tension liquid-gas (293.15 K, x1 = 0.5): 21.74 ± 0.24 mN/m | surface tension liquid-gas (293.15 K, x1 = 0.6001): 22.44 ± 0.24 mN/m | surface tension liquid-gas (293.15 K, x1 = 0.7004): 23.16 ± 0.24 mN/m | surface tension liquid-gas (293.15 K, x1 = 0.8001): 24 ± 0.24 mN/m | surface tension liquid-gas (293.15 K, x1 = 0.8994): 24.75 ± 0.24 mN/m | surface tension liquid-gas (293.15 K, x1 = 1): 25.47 ± 0.24 mN/m | viscosity (293.15 K, x1 = 0.1): 0.54 ± 0.087 mPa·s | viscosity (293.15 K, x1 = 0.2): 0.565 ± 0.091 mPa·s | viscosity (293.15 K, x1 = 0.3003): 0.591 ± 0.095 mPa·s | viscosity (293.15 K, x1 = 0.3997): 0.619 ± 0.099 mPa·s | viscosity (293.15 K, x1 = 0.5002): 0.65 ± 0.1 mPa·s | viscosity (293.15 K, x1 = 0.6005): 0.684 ± 0.11 mPa·s | viscosity (293.15 K, x1 = 0.7002): 0.719 ± 0.12 mPa·s | viscosity (293.15 K, x1 = 0.8003): 0.758 ± 0.12 mPa·s | viscosity (293.15 K, x1 = 0.8997): 0.801 ± 0.13 mPa·s | viscosity (293.15 K, x1 = 1): 0.848 ± 0.14 mPa·s | mass density (293.15 K, x1 = 0.1): 700.76 ± 0.19 kg/m3 | mass density (293.15 K, x1 = 0.2): 709.8 ± 0.18 kg/m3 | mass density (293.15 K, x1 = 0.3003): 719.07 ± 0.18 kg/m3 | mass density (293.15 K, x1 = 0.3997): 728.38 ± 0.17 kg/m3 | mass density (293.15 K, x1 = 0.5002): 737.96 ± 0.17 kg/m3 | mass density (293.15 K, x1 = 0.6005): 747.68 ± 0.16 kg/m3 | mass density (293.15 K, x1 = 0.7002): 757.5 ± 0.16 kg/m3 | mass density (293.15 K, x1 = 0.8003): 767.49 ± 0.15 kg/m3 | mass density (293.15 K, x1 = 0.8997): 777.58 ± 0.15 kg/m3 | mass density (293.15 K, x1 = 1): 787.98 ± 0.15 kg/m3 | surface tension liquid-gas (298.15 K, x1 = 0.1): 18.91 ± 0.24 mN/m | surface tension liquid-gas (298.15 K, x1 = 0.1999): 19.38 ± 0.24 mN/m | surface tension liquid-gas (298.15 K, x1 = 0.3): 19.88 ± 0.24 mN/m | surface tension liquid-gas (298.15 K, x1 = 0.4): 20.4 ± 0.24 mN/m | surface tension liquid-gas (298.15 K, x1 = 0.5): 21.01 ± 0.24 mN/m | surface tension liquid-gas (298.15 K, x1 = 0.6001): 21.67 ± 0.24 mN/m | surface tension liquid-gas (298.15 K, x1 = 0.7004): 22.45 ± 0.24 mN/m | surface tension liquid-gas (298.15 K, x1 = 0.8001): 23.23 ± 0.24 mN/m | surface tension liquid-gas (298.15 K, x1 = 0.8994): 24 ± 0.24 mN/m | surface tension liquid-gas (298.15 K, x1 = 1): 24.76 ± 0.24 mN/m | viscosity (298.15 K, x1 = 0.1): 0.513 ± 0.082 mPa·s | viscosity (298.15 K, x1 = 0.2): 0.536 ± 0.086 mPa·s | viscosity (298.15 K, x1 = 0.3003): 0.56 ± 0.09 mPa·s | viscosity (298.15 K, x1 = 0.3997): 0.586 ± 0.094 mPa·s | viscosity (298.15 K, x1 = 0.5002): 0.613 ± 0.098 mPa·s | viscosity (298.15 K, x1 = 0.6005): 0.644 ± 0.1 mPa·s | viscosity (298.15 K, x1 = 0.7002): 0.677 ± 0.11 mPa·s | viscosity (298.15 K, x1 = 0.8003): 0.712 ± 0.11 mPa·s | viscosity (298.15 K, x1 = 0.8997): 0.751 ± 0.12 mPa·s | viscosity (298.15 K, x1 = 1): 0.793 ± 0.13 mPa·s | mass density (298.15 K, x1 = 0.1): 696.71 ± 0.19 kg/m3 | mass density (298.15 K, x1 = 0.2): 705.71 ± 0.18 kg/m3 | mass density (298.15 K, x1 = 0.3003): 715.02 ± 0.18 kg/m3 | mass density (298.15 K, x1 = 0.3997): 724.34 ± 0.17 kg/m3 | mass density (298.15 K, x1 = 0.5002): 733.9 ± 0.17 kg/m3 | mass density (298.15 K, x1 = 0.6005): 743.64 ± 0.16 kg/m3 | mass density (298.15 K, x1 = 0.7002): 753.47 ± 0.16 kg/m3 | mass density (298.15 K, x1 = 0.8003): 763.46 ± 0.16 kg/m3 | mass density (298.15 K, x1 = 0.8997): 773.57 ± 0.15 kg/m3 | mass density (298.15 K, x1 = 1): 783.97 ± 0.15 kg/m3 | surface tension liquid-gas (303.15 K, x1 = 0.1): 18.49 ± 0.24 mN/m | surface tension liquid-gas (303.15 K, x1 = 0.2): 18.96 ± 0.24 mN/m | surface tension liquid-gas (303.15 K, x1 = 0.3003): 19.61 ± 0.24 mN/m | surface tension liquid-gas (303.15 K, x1 = 0.3997): 19.97 ± 0.24 mN/m | surface tension liquid-gas (303.15 K, x1 = 0.5002): 20.62 ± 0.24 mN/m | surface tension liquid-gas (303.15 K, x1 = 0.6005): 21.24 ± 0.24 mN/m | surface tension liquid-gas (303.15 K, x1 = 0.7002): 22.12 ± 0.24 mN/m | surface tension liquid-gas (303.15 K, x1 = 0.8003): 22.89 ± 0.24 mN/m | surface tension liquid-gas (303.15 K, x1 = 0.8997): 23.75 ± 0.24 mN/m | surface tension liquid-gas (303.15 K, x1 = 1): 24.55 ± 0.24 mN/m | viscosity (303.15 K, x1 = 0.1): 0.489 ± 0.078 mPa·s | viscosity (303.15 K, x1 = 0.2): 0.509 ± 0.082 mPa·s | viscosity (303.15 K, x1 = 0.3003): 0.531 ± 0.085 mPa·s | viscosity (303.15 K, x1 = 0.3997): 0.555 ± 0.089 mPa·s | viscosity (303.15 K, x1 = 0.5002): 0.581 ± 0.093 mPa·s | viscosity (303.15 K, x1 = 0.6005): 0.609 ± 0.098 mPa·s | viscosity (303.15 K, x1 = 0.7002): 0.638 ± 0.1 mPa·s | viscosity (303.15 K, x1 = 0.8003): 0.671 ± 0.11 mPa·s | viscosity (303.15 K, x1 = 0.8997): 0.706 ± 0.11 mPa·s | viscosity (303.15 K, x1 = 1): 0.745 ± 0.12 mPa·s | mass density (303.15 K, x1 = 0.1): 692.57 ± 0.19 kg/m3 | mass density (303.15 K, x1 = 0.2): 701.62 ± 0.18 kg/m3 | mass density (303.15 K, x1 = 0.3003): 710.92 ± 0.18 kg/m3 | mass density (303.15 K, x1 = 0.3997): 720.25 ± 0.17 kg/m3 | mass density (303.15 K, x1 = 0.5002): 729.84 ± 0.17 kg/m3 | mass density (303.15 K, x1 = 0.6005): 739.57 ± 0.16 kg/m3 | mass density (303.15 K, x1 = 0.7002): 749.4 ± 0.16 kg/m3 | mass density (303.15 K, x1 = 0.8003): 759.41 ± 0.16 kg/m3 | mass density (303.15 K, x1 = 0.8997): 769.52 ± 0.15 kg/m3 | mass density (303.15 K, x1 = 1): 779.93 ± 0.15 kg/m3 | surface tension liquid-gas (308.15 K, x1 = 0.1): 18 ± 0.23 mN/m | surface tension liquid-gas (308.15 K, x1 = 0.1999): 18.45 ± 0.23 mN/m | surface tension liquid-gas (308.15 K, x1 = 0.3): 18.91 ± 0.23 mN/m | surface tension liquid-gas (308.15 K, x1 = 0.4): 19.39 ± 0.23 mN/m | surface tension liquid-gas (308.15 K, x1 = 0.5): 19.98 ± 0.24 mN/m | surface tension liquid-gas (308.15 K, x1 = 0.6001): 20.65 ± 0.24 mN/m | surface tension liquid-gas (308.15 K, x1 = 0.7004): 21.4 ± 0.24 mN/m | surface tension liquid-gas (308.15 K, x1 = 0.8001): 22.11 ± 0.24 mN/m | surface tension liquid-gas (308.15 K, x1 = 0.8994): 22.94 ± 0.24 mN/m | surface tension liquid-gas (308.15 K, x1 = 1): 23.74 ± 0.24 mN/m | viscosity (308.15 K, x1 = 0.1): 0.466 ± 0.075 mPa·s | viscosity (308.15 K, x1 = 0.2): 0.485 ± 0.078 mPa·s | viscosity (308.15 K, x1 = 0.3003): 0.505 ± 0.081 mPa·s | viscosity (308.15 K, x1 = 0.3997): 0.527 ± 0.084 mPa·s | viscosity (308.15 K, x1 = 0.5002): 0.55 ± 0.088 mPa·s | viscosity (308.15 K, x1 = 0.6005): 0.577 ± 0.092 mPa·s | viscosity (308.15 K, x1 = 0.7002): 0.604 ± 0.097 mPa·s | viscosity (308.15 K, x1 = 0.8003): 0.634 ± 0.1 mPa·s | viscosity (308.15 K, x1 = 0.8997): 0.666 ± 0.11 mPa·s | viscosity (308.15 K, x1 = 1): 0.702 ± 0.11 mPa·s
